Results on 3 molecules are retold here after patent publication US20060141029A1, “Methods and compositions for delivery of catecholic butanes for treatment of diseases” (priority 2003, published 2006).

A short description of one data set: Solubility. The class given is physicochemical.
In data set [1] the test system is HPV-16 transformed immortal mouse epithelial cells (C3). Particulars: cited from earlier work; for tumor growth: intratumor injection, separately or together, C3 tumors in mice.
The conditions of data set [2]: dog, in vivo, iv.
Description: In this example the Maximal Tolerable Dose (MTD) of Dimethyl Sulfoxide (DMSO)] to male and female Beagle Dogs was determined.
Thus the M4N-DMSO group animals were administered with M4N-DMSO with eight intravenous injections via the non-VAP jugular vein every 30 minutes over a 4-hour period. This frequency of delivery mimicked the delivery of the test article using the infusion pump.
The dogs in the DMSO group were observed throughout the jugular vein injection period and for at least one hour following the last (eighth) injection.
The conditions of data set [3]: DMSO; cited from earlier work.
Data set [4] is described as follows: Toxicokinetic (TK) analysis of M4N serum concentration in dogs. The class given is in vivo, Beagle Dogs. The settings on record: DMSO vehicle, doses up to 100 mg/kg. Here is the method: Blood samples from the DMSO group animals were collected via the cephalic vein on SD 1, SD 3, SD 6, and SD 8 at the following timepoints: predose, 0.25, 0.5, 1, 2, 4, 8, and 16 hours following the final injection dose of M4N-DMSO. Blood samples collected from the animals were processed for plasma and serum for TK analysis.
The plasma and serum samples were sent to MedTox Laboratories, the Sponsor's designated laboratory for TK analysis. TK analysis of M4N plasma and serum concentration-time data was performed using a validated method (M200406) by MedTox Laboratories and analyzed by noncompartmental methods to obtain estimates of toxicokinetic parameters (where data allow), but not necessarily limited to, Cmax, Tmax and AUC.

Data set [5] relates to refractory head and neck carcinomas.
Description: All patients were diagnosed with refractory head and neck carcinomas.
Nine (9) subjects were dosed with an intratumoral dose of M4N given weekly for three weeks, at doses of 5 mg/cm^3 tumor volume (2 subjects), 10 mg/cm^3 (2 subjects) 15 mg/cm^3 (3 subjects) and 20 mg/cm^3 (2 subjects). Doses up to 495 mg weekly for three weeks were administered.
The next data set deals with head and neck cancer. The experiment in a line: ex-US clinical study, daily M4N with or without G4N followed by surgical resection. The class given is in vivo, humans.
The target of the next data set is T1, fAβ(1-42) (Homo sapiens, UniProt P05067).
T1 construct: fAβ(1-42) within a few hours at pH 7.5
Particulars: within a few hours at pH 7.5 at 37° C.; cited from earlier work.

Data set [6] has as its system mammary carcinoma MX-1 xenograft. The settings on record: intratumoral single dose or topical application, athymic mice; cited from earlier work.
In another data set the test system is β-amyloid fibrils. The settings on record: in vitro; cited from earlier work.
The next data set has as its target T2, fAβ(1-40) (Homo sapiens, UniProt P05067).
T2 construct: broke down fAβ(1-40)
Particulars: within a few hours at pH 7.5 at 37° C.; cited from earlier work.

The conditions of data set [7]: rodents; cited from earlier work.
For data set [8] the following is noted: in vivo; cited from earlier work.

T1 sequence (P05067 672-713 limits assumed): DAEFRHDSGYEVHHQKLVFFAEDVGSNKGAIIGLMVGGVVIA
T2 sequence (P05067 672-711 limits assumed): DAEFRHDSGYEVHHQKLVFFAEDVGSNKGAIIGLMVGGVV

Regarding `C[C@H](Cc1ccc(OC(=O)CN(C)C)c(OC(=O)CN(C)C)c1)[C@@H](C)Cc1ccc(OC(=O)CN(C)C)c(OC(=O)CN(C)C)c1` [G4N, meso-1,4-bis[3,4-(dimethylaminoacetoxy)phenyl]-(2R,3S)-dimethylbutane], the water solubility result in the data set “Solubility” is on record as “water-soluble”. Further, in data set [1], the tumor growth entry is on record as “some evidence of suppression of tumor growth”.
Turning to `COc1ccc(C[C@@H](C)[C@@H](C)Cc2ccc(OC)c(OC)c2)cc1OC` [M4N, meso-1,4-bis(3,4-dimethoxyphenyl)-2,3-dimethylbutane], in data set [2], the dose safely administered entry is recorded as “up to 100 mg/kg”. Further, the “solubility in dimethyl sulfoxide” value in [3] was “soluble”. Also, in data set [4], the “blood levels of M4N achieved” value is recorded as “up to 14,000 ng/ml”. For the same molecule, the “penetration of tumor tissues” value in data set [1] (composition of M4N in DMSO injected into the tumor) is reported as “penetrate most but not all of the tumor tissues”. Besides, the tumor growth entry in data set [1] is on record as “some evidence of suppression of tumor growth”. Moreover, in data set [5] (in vivo), the “damage to healthy tissue surrounding the tumor” value is “No damage”, the “dose delivered without drug-related toxicity” value is listed as “up to 495 mg”, the “dosing related adverse events” value is listed as “mild or moderate pain on injection” and the hematology parameters entry is “No changes attributable to drug”. Also, in [5] (in vivo), the “liver function tests (LFTs)” value was “Sporadic, and non-reproducible mild elevations”; the “number of Serious Adverse Events (SAE)” value is 6; the “relation of SAEs to study medication” value is given as “unlikely or not related to study medication”; the tolerability of dosing result is recorded as “generally well tolerated”. Also, the “patients with radiologically confirmed tumor volume reduction” value in [5] (patients completing three doses) was “three of the six”. Besides, the “efficacy in terms of induction of necrosis” value in [5] (patients that completed the treatment, weekly escalating doses) is “over 80%”. In addition, the “subjects with drug related tumor necrosis after injection” value in data set [5] (subjects receiving three doses) is recorded as 5 of 6. For the same molecule, the “dosage delivered without drug-related toxicity” value in the data set on head and neck cancer (for up to five days, with or without G4N 20 mg per day) was determined as 20 mg per day. Further, the “patients remaining disease free” value with head and neck cancer (long-term follow ups of the ex-US study) was 64%. Besides, the “efficacy in terms of induction of necrosis” value with head and neck cancer (patients that completed the treatment, daily dosing then resection) is “over 80%”.
Turning to `CC(Cc1ccc(O)c(O)c1)C(C)Cc1ccc(O)c(O)c1` (centres unmarked) [NDGA, nordihydroguaiaretic acid], the “breakdown of fAβ(1-42)” value at fAβ(1-42) was “dose-dependently broke down”. Besides, the tumor growth entry in data set [6] is listed as “Some evidence of inhibition of tumor growth”. The “β-amyloid fibrils (fAβ) formation” value in the data set on β-amyloid fibrils was “inhibited”. For the same molecule, on fAβ(1-40), the “breakdown of fAβ(1-40)” value is on record as “dose-dependently broke down”. In data set [7], the serum glucose result was “reducing”, the “serum non-esterified fatty acids” value was “reducing” and the serum triglyceride entry is on record as “reducing”. Besides, the hypertension entry in [8] is “reducing hypertension”.
